Measured values: patent publication US8273705B2, “Conversion of apoptotic proteins” (The Burnham Institute, priority 2002, dated 2012)
d = 2'-deoxy (DNA); r = 2'-OH (RNA)

Legend:
H460 lung cancer cells = assay: TR3 induction and apoptosis in H460 lung cancer cells; format: cell-based
Experimental: (§1) In addition to TPA, AHPN and its structural analogs also induce TR3 expression and TR3-dependent apoptosis in an epithelial cancer cell line. […] Lysates were then incubated with anti-Bcl-2 antibody. Immunoblotting of immunoprecipitates was conducted using anti-TR3 and anti-Bcl-2 antibodies.
BH3-only proteins exert their apoptotic effects through either Bax or Bak. The involvement of Bax and Bak in Bcl-2-dependent apoptosis induced by TR3 was therefore examined.
To determine whether Bak, which was highly expressed in H460 cells, played a role in Bcl-2-dependent apoptosis induced by TR3, the effects of Bak siRNA transfection was examined. […] Thus, Bcl-2-dependent apoptosis induced by TR3 depends on multidomain pro-apoptotic Bcl-2-family proteins such as Bak.

[1] = tested on: MGC80-3 gastric cancer cells; assay: TR3 mitochondrial targeting in MGC80-3 gastric cancer cells; format: cell-based; settings: MGC80-3 cells treated with 3-Cl-AHPC
Experimental: C. Small interfering RNA (siRNA)—To complement these gene transfection experiments, a small interfering (si)RNA approach was used to determine the effect of suppressing endogenous Bcl-2 expression on TR3 mitochondrial targeting. […] After 48 h, lysates were prepared and assayed by immunoblotting using anti-Bcl-2 and anti-β-actin antibodies.

MGC80-3 cells = assay: TR3-dependent apoptosis in MGC80-3 cells with Bcl-2 siRNA; format: cell-based; settings: control GFP-siRNA-transfected MGC80-3 cells
Experimental: Bcl-2 siRNAs and antisense oligonucleotides—The target siRNA SMARTPOOLs® for Bcl-2 and Bak and the siRNA oligonucleotide for TR3 (5′-CAG UCC AGC CAU GCU CCU dTdT) (SEQ ID NO: 2) were purchased from Dharmacon Research Inc. Target or control siRNA were transfected at a final concentration of 200 nM into cells at 40% confluency using Oligofectamine reagent (Invitrogen) according to the manufacturer's recommendations. After 48 h, cells were analyzed. Bcl-2 antisense oligonucleotide targeting Bcl-2 and negative control oligonucleotides were obtained from Calbiochem. They (2.5 μM) were transfected into cells at 60% confluency for 36 h before analysis.
The effect of inhibiting endogenous Bcl-2 expression on the TR3-dependent apoptosis in MGC80-3 cells was next analyzed. […] However, 3-Cl-AHPC-induced apoptosis was suppressed by more than half (about 60%) in Bcl-2 siRNA-transfected cells. Similar results were obtained in H460 lung cancer cells. […] Thus, Bcl-2 can manifest a pro-apoptotic phenotype in settings where TR3 is expressed and targets to mitochondria.

TR3/Bcl-2 interaction = assay: Co-IP of TR3 and Bcl-2 in H460 lung cancer cells; format: cell-based; settings: 10^−6 M for 3 hours
Experimental: as §1

293T cells = assay: DAPI apoptosis assay in 293T cells; format: cell-based, human; settings: 293T, transfected alone, 36 h, DAPI
Experimental: Apoptosis assays—For nuclear morphological change analysis, cells were trypsinized, washed with PBS, fixed with 3.7% paraformaldehyde, and stained with DAPI (4,6-diamidino-2-phenylindole) (50 μg/ml) to visualize the nuclei by UV-microscopy. The percentages of apoptotic cells were determined by counting 300 GFP-positive cells, scoring cells having nuclear fragmentation and/or chromatin condensation.
DAPI staining was used to study the apoptotic effect of TR3/Bcl-2 interaction. 293T cells were transfected with GFP-TR3/ΔDBD alone or together with Bcl-2. After 36 h, nuclei were stained by DAPI and nuclear fragmentation and chromatin condensation were identified. Cells were also stained with anti-Bcl-2 antibody, followed by TRITC-conjugated secondary antibody (Sigma). Bcl-2 and GFP-ΔDBD expression and nuclear morphology were visualized by fluorescence microscopy, and the two images were overlaid. […] But, when Bcl-2 was cotransfected, a significant amount of transfected cells underwent apoptosis. For example, approximately 4% of cells transfected with either TR3/ΔDBD or Bcl-2 were apoptotic, compared to 35% of cell transfected with both. […]
To characterize the pro-apoptotic mechanism of Bcl-2 in the setting of TR3-induced apoptosis, various TR3 mutants and Bcl-2 mutants were co-expressed in HEK293T cells. […] Cells displaying nuclear condensation or fragmentation were scored. […]

[2] = tested on: peripheral blood lymphocytes (PBLs); assay: Apoptosis of peripheral blood lymphocytes; format: cell-based, human; settings: oligonucleotide transfected
Experimental: Isolation and transfection of human peripheral blood lymphocytes (PBLs)—Leukocyte-enriched buffy coats from San Diego Blood Bank were diluted with 2 volumes of PBS, and PBLs were isolated by centrifuge on Ficoll-paque™ Plus (Amersham Pharmacia biotech). The mononuclear cells were cultured in RPMI containing 10% FBS and 20 μM Hepes. Freshly isolated cells (10^7 cells per transfection) were washed once with PBS containing 0.5% BSA and supernatant was completely discarded so that no residual PBS/BSA covers the pellet. The cells were resuspended in 100 μl of the human T Cell Nucleofector™ solution (Amexa biosystems) and very gently mixed with 1-4 μg DNA in 5 μl. The cell suspension was transferred into a cuvette supplied by Amexa biosystems and electroporated using U-14 program of Nucleofector™ device. The cells were removed from the cuvette quickly by adding 500 μl of the pre-warmed RPMI medium containing 10% FBS and 20 μM Hepes and transferred into 12 well plates containing 1.5 ml of pre-warmed culture medium.

[3] = tested on: primary dopaminergic neurons; assay: TR3 localization in primary dopaminergic neurons; format: cell-based, rat; settings: 100 μM, one hour
Experimental: To further investigate TR3 targeting of mitochondria, rat primary neurons were treated with the dopaminergic neurotoxin 1-methyl-4-phenyl-1,2,3,6-tetrahydropyridine (MPTP). MPTP induces Parkinson's disease in animals. […] Neurons were identified by staining with neuron marker. TR3 and mitochondria (Hsp60) were visualized using confocal microscopy. […] TR3 was found only in the nucleus of non-treated neurons. Thus, TR3 mitochondrial localization plays a role in mediating the effect of dopaminergic neurotoxin in neurons.

Bcl-XL = molecular target: T1, Bcl-XL (Homo sapiens, UniProt Q07817); assay: TCTP/Bcl-XL interaction (yeast two-hybrid, immunoprecipitation in HEK293T); format: binding
T1 construct: expressed in transfected cells; host or cells: HEK293T
From the text: Bcl-XL cDNA was constructed into the pGilda yeast two-hybrid vector. Using pGilda-Bcl-XL as bait, a human testis cDNA library was used in yeast two-hybrid screening to screen for potential Bcl-XL interacting proteins. pGilda-Bcl-XL and a reporter plasmid pSH18-34 were co-transfected into EGY48 yeast cells. The transfectant yeast cells were then transfected in large scale with yeast two-hybrid library cDNA plasmids. Positive clones were identified through selection in Leucine-deficient media. A total of 95 positive colonies were identified. These positive clones were further examined for a second reporter expression by β-gal filter assays. Among these clones, 29 of them tested positive. These clones were further examined by mating assays to confirm the interaction with Bcl-XL. Ten positive clones were isolated and sequenced to reveal their identity. Two of them encode cDNAs identical to human Translationally-Controlled Tumor Protein (TCTP).
TCTP is a calcium-binding protein with no previous identified role in apoptosis regulation. […] Cell lysates were immunoprecipitated with polyclonal anti-GFP antibody. The immunoprecipitates or the lysates were blotted with anti-HA or anti-GFP antibodies, respectively.

cos-7 cells [4] = assay: TCTP/Bcl-XL co-localization in cos-7 cells; format: cell-based; settings: cos-7, GFP-TCTP and RFP-Bcl-XL
From the text: Images were photographed with a confocal microscope.

cos-7 cells [5] = assay: TCTP-induced apoptosis (DAPI) in cos-7 cells; format: cell-based
Experimental: Cells were fixed and stained with DAPI 48 hours after transfection (n≧200 total cells evaluated) and the percentage of apoptotic cells was calculated (mean±SD, n=3) (FIG. 7).

T1 sequence (Q07817 whole entry): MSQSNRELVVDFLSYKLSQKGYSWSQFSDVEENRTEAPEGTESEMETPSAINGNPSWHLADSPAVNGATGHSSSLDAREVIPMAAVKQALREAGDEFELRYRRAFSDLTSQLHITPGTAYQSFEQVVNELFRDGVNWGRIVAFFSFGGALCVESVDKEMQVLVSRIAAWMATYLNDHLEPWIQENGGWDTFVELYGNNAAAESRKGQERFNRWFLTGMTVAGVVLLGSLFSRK

## O=C(O)/C=C/c1ccc(-c2ccc(O)c(C34CC5CC(CC(C5)C3)C4)c2)c(Cl)c1 [3-Cl-AHPC]
H460 lung cancer cells
  apoptosis: extensive apoptosis
H460 lung cancer cells; 10^−6 M for 3 hours
  TR3 expression, mitochondrial targeting and apoptosis: potently induces TR3 expression, mitochondrial targeting and apoptosis
[1]
  endogenous TR3 localization: targeted mitochondria
MGC80-3 cells
  apoptosis: resulted in apoptosis
TR3/Bcl-2 interaction
  co-immunoprecipitation of TR3 with anti-Bcl-2 antibody: demonstrated co-immunoprecipitation of TR3

## Bcl-2: Bcl-2 expression vector transfected into cells
293T cells
  apoptotic cells: approximately 4%

## 5′-CAG UCC AGC CAU GCU CCU dTdT (CAGUCCAGCCAUGCUCCUTT; siRNA; sugars from the 5' end r18 d2, backbone not given here) [TR3 siRNA, reference compound]
[2]
  TPA/ionomycin-induced apoptosis of PBLs: partially inhibited

## CN1CC=C(c2ccccc2)CC1 [MPTP, 1-methyl-4-phenyl-1,2,3,6-tetrahydropyridine]
[3]
  endogenous TR3 localization: found exclusively in the cytoplasm and colocalized with mitochondria

## TCTP: human Translationally-Controlled Tumor Protein
Bcl-XL
  interaction with Bcl-XL: interacts with Bcl-XL
cos-7 cells [4]
  subcellular localization with Bcl-XL: recruits TCTP from cytosolic location to the mitochondria
cos-7 cells [5]; expressed together with Bcl-XL versus without Bcl-XL, 48 hours
  apoptosis: More apoptosis
cos-7 cells [5]; over-expressed in cells
  apoptosis: induces apoptosis
